Laboratory results: patent US20240391930A1, “SPIROCYCLIC BICYCLIC MODULATORS OF CHOLESTEROL BIOSYNTHESIS AND THEIR USE FOR PROMOTING REMYELINATION” (GENENTECH, INC., priority 2021, published 2024)

Assays:
[1] = molecular target: T1, human emopamil binding protein and human 7-dehydrocholesterol reductase (hEBP-DHCR7) (Homo sapiens, UniProt Q15125); assay: hEBP-DHCR7 radioligand filtration binding assay; conditions: membranes of HEK293 co-expressing hEBP and DHCR7; [3H] 2-thia-6-azaspiro[3.4]octane radioligand; 8 doses 0.06 to 5000 nM
T1 construct: expressed in transfected cells; host or cells: HEK 293 cells, transient transfection with 2 DNA constructs
T1 sequence (Q15125 whole entry): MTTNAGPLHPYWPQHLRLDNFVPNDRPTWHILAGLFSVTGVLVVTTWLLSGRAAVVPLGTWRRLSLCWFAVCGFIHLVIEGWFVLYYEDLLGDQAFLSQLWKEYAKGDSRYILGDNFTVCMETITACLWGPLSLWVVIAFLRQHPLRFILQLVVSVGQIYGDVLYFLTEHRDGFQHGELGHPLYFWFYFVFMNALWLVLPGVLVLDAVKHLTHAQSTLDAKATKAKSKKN
In short: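 Membranes from HEK293 cells transiently co-expressing human EBP and DHCR7 (10 μg/well) incubated 3 h at 22 °C with tritiated 2-thia-6-azaspiro[3.4]octane dioxide radioligand (25 nM stock addition) and compound at 0.06–5000 nM final. Bound ligand collected on PEI-treated GF/B filters, scintillation-counted. IC50 by Hill fit; reported as Ki.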

[2] = system: zymostenol accumulation in EpiSC-derived OPCs (EBP); assay: GC/MS-based sterol profiling (zymostenol accumulation); assay type: cell-based; conditions: Mus musculus, 24 hours, 8 doses from 0.15 nM to 333 nM, read-out: Zymostenol GCMS EC50
In short: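 Mouse epiblast stem cell-derived OPCs plated at 100,000 cells/well in growth-factor-free N2B27 and treated 24 h. Sterols extracted by modified Folch wash, silylated with BSTFA, and quantified by electron-impact GC/MS against cholesterol-d7 (zymostenol ion 458). Zymostenol normalised to 24 h 100 nM positive-control reference.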

Row | Compound | Ki [1] | EC50 [2]
1 | CC(C)n1nc(-c2cncc(C(F)(F)F)c2)cc1[C@H]1[C@@H]2C[C@@H](N3CCC4(CC3)CS(=O)(=O)C4)C[C@@H]21 (single isomer, unassigned) [Compound 38] | 41 nM | 2.9 nM
2 | CC(C)n1nc(-c2ccnc(C(F)(F)F)n2)cc1[C@H]1[C@@H]2C[C@@H](N3CCC4(CC3)CS(=O)(=O)C4)C[C@@H]21 (single isomer, unassigned) [Compound 49] | 64.9 nM | 2.7 nM
3 | CC(C)n1nc(-c2cncc(C(F)(F)F)c2)cc1[C@H]1[C@@H]2C[C@H](N3CC[C@@]4(CCS(=O)(=O)C4)C3)C[C@@H]21 (single isomer, unassigned) [Compound 9*] | 20.1 nM | 2.7 nM
4 | CC(C)n1nc(-c2cncc(C(F)(F)F)c2)cc1[C@H]1[C@@H]2C[C@H](N3CC4(C3)CS(=O)(=O)C4)C[C@@H]21 (single isomer, unassigned) [Compound 99*] | 48 nM | 86 nM
5 | CC(C)n1nc(-c2cncc(C(F)(F)F)c2)nc1[C@H]1[C@@H]2C[C@@H](N3CCC4(C3)CS(=O)(=O)C4)C[C@@H]21 (single isomer, unassigned) [Compound 16] | 21 nM | 6.7 nM
6 | CC(C)n1nc(-c2ccnc(C(F)(F)F)n2)cc1[C@H]1[C@@H]2C[C@H](N3CCC4(CC3)CS(=O)(=O)C4)C[C@@H]21 (single isomer, unassigned) [Compound 50] | 49 nM | 20 nM
7 | CC(C)n1nc(-c2cncc(C(F)(F)F)c2)nc1[C@H]1[C@@H]2C[C@H](N3CCC4(C3)CS(=O)(=O)C4)C[C@@H]21 (single isomer, unassigned) [Compound 17] | 116 nM | 42 nM
8 | CC(C)n1nc(-c2ccnc(C(F)(F)F)n2)cc1[C@H]1[C@@H]2C[C@@H](N3CCC4(C3)CS(=O)(=O)C4)C[C@@H]21 [Compound 28, 6-((1R,3s,5S,6r)-6-(1-isopropyl-3-(2-(trifluoromethyl)pyrimidin-4-yl)-1H-pyrazol-5-yl)bicyclo[3.1.0]hexan-3-yl)-2-thia-6-azaspiro[3.4]octane 2,2-dioxide] | 24.6 nM | 6 nM
9 | CC(C)n1nc(-c2ccnc(C(F)(F)F)n2)cc1[C@H]1[C@@H]2C[C@H](N3CCC4(C3)CS(=O)(=O)C4)C[C@@H]21 [Compound 15, 6-((1R,3r,5S,6r)-6-(1-Isopropyl-3-(2-(trifluoromethyl)pyrimidin-4-yl)-1H-pyrazol-5-yl)bicyclo[3.1.0]hexan-3-yl)-2-thia-6-azaspiro[3.4]octane 2,2-dioxide] | 20 nM | 3.2 nM
10 | CC(C)n1nc(-c2cc(C(F)(F)F)ccn2)cc1[C@H]1[C@@H]2C[C@@H](N3CCC4(C3)CS(=O)(=O)C4)C[C@@H]21 (single isomer, unassigned) [Compound 20] | 48.9 nM | 1.2 nM
11 | CC(C)n1nc(-c2cncc(C(F)(F)F)c2)cc1[C@H]1[C@@H]2C[C@@H](N3CC4(C3)CS(=O)(=O)C4)C[C@@H]21 (single isomer, unassigned) [Compound 98*] | 54 nM | 55 nM
12 | CC(C)n1nc(-c2ccc(C(F)(F)F)cc2)cc1[C@H]1[C@@H]2C[C@H](N3CCC4(C3)CS(=O)(=O)C4)C[C@@H]21 [Compound 5, 6-((1R,3r,5S,6r)-6-(1-Isopropyl-3-(4-(trifluoromethyl)phenyl)-1H-pyrazol-5-yl)bicyclo[3.1.0]hexan-3-yl)-2-thia-6-azaspiro[3.4]octane 2,2-dioxide] | 43 nM | 3.6 nM
13 | CC(C)n1nc(-c2cccc(C(F)(F)F)n2)cc1[C@H]1[C@@H]2C[C@@H](N3CCC4(CC3)CS(=O)(=O)C4)C[C@@H]21 (single isomer, unassigned) [Compound 47] | 175 nM | 1.9 nM

Further compounds by falling Ki [1], results first:

Row | Ki [1] | EC50 [2] | Compound
14 | 19.9 nM | 1.8 nM | CCn1nc(-c2cncc(C(F)(F)F)c2)cc1[C@H]1[C@@H]2C[C@@H](N3CCC4(C3)CS(=O)(=O)C4)C[C@@H]21 (single isomer, unassigned) [Compound 24]
15 | 19.2 nM | 7.1 nM | C=C(c1cc([C@H]2[C@@H]3C[C@H](N4CCC5(C4)CS(=O)(=O)C5)C[C@@H]32)n(C(C)C)n1)C(F)(F)F [Compound 31, 6-((1R,3r,5S,6r)-6-(1-Isopropyl-3-(3,3,3-trifluoroprop-1-en-2-yl)-1H-pyrazol-5-yl)bicyclo[3.1.0]hexan-3-yl)-2-thia-6-azaspiro[3.4]octane 2,2-dioxide]
16 | 18.4 nM | 5.9 nM | CC(C)n1nc(-c2cncc(C(F)(F)F)c2)cc1[C@H]1[C@@H]2C[C@H](N3CCC4(CC3)CS(=O)(=O)C4)C[C@@H]21 (single isomer, unassigned) [Compound 40]
17 | 18.1 nM | 29 nM | CC(C)n1nc(-c2cnc(C(F)(F)F)nc2)cc1[C@H]1[C@@H]2C[C@H](N3CCC4(C3)CS(=O)(=O)C4)C[C@@H]21 [Compound 6, 6-((1R,3r,5S,6r)-6-(1-Isopropyl-3-(2-(trifluoromethyl)pyrimidin-5-yl)-1H-pyrazol-5-yl)bicyclo[3.1.0]hexan-3-yl)-2-thia-6-azaspiro[3.4]octane 2,2-dioxide]
18 | 17.1 nM | 3.1 nM | CC(C)n1nc(-c2cc(C(F)(F)F)ccn2)cc1[C@H]1[C@@H]2C[C@H](N3CCC4(C3)CS(=O)(=O)C4)C[C@@H]21 (single isomer, unassigned) [Compound 21]
19 | 17 nM | 2.3 nM | CC(C)n1nc(-c2ccnc(C(F)(F)F)c2)cc1[C@H]1[C@@H]2C[C@@H](N3CCC4(C3)CS(=O)(=O)C4)C[C@@H]21 (single isomer, unassigned) [Compound 18]
20 | 14.6 nM | 0.36 nM | CCn1nc(-c2cncc(C(F)(F)F)c2)cc1[C@H]1[C@@H]2C[C@H](N3CCC4(C3)CS(=O)(=O)C4)C[C@@H]21 (single isomer, unassigned) [Compound 25]
21 | 14.5 nM | 3 nM | CC(C)n1nc(-c2cncc(C(F)(F)F)c2)cc1[C@H]1[C@@H]2C[C@H](N3CCC4(C3)CS(=O)(=O)C4)C[C@@H]21 (single isomer, unassigned) [Compound 4]
22 | 13.5 nM | 5.3 nM | CC(C)n1nc(C2(C(F)(F)F)CC2)cc1[C@H]1[C@@H]2C[C@H](N3CCC4(C3)CS(=O)(=O)C4)C[C@@H]21 [Compound 32, 6-((1R,3r,5S,6r)-6-(1-Isopropyl-3-(1-(trifluoromethyl)cyclopropyl)-1H-pyrazol-5-yl)bicyclo[3.1.0]hexan-3-yl)-2-thia-6-azaspiro[3.4]octane 2,2-dioxide]
23 | 13.2 nM | 7.2 nM | CC(C)n1nc(-c2cccc(C(F)(F)F)n2)cc1[C@H]1[C@@H]2C[C@@H](N3CCC4(C3)CS(=O)(=O)C4)C[C@@H]21 (single isomer, unassigned) [Compound 11]
24 | 12.5 nM | 10 nM | CC(C)n1nc(-c2cccc(C(F)(F)F)n2)cc1[C@H]1[C@@H]2C[C@H](N3CCC4(CC3)CS(=O)(=O)C4)C[C@@H]21 (single isomer, unassigned) [Compound 48]
25 | 12.4 nM | 12 nM | CC(C)n1nc(C(F)(F)F)cc1[C@H]1[C@@H]2C[C@H](N3CCC4(C3)CS(=O)(=O)C4)C[C@@H]21 (single isomer, unassigned) [Compound 23]
26 | 12.4 nM | 12 nM | CC(C)n1nc(C(F)(F)F)cc1[C@H]1[C@@H]2C[C@@H](N3CCC4(C3)CS(=O)(=O)C4)C[C@@H]21 (single isomer, unassigned) [Compound 22]
27 | 12 nM | 3.7 nM | CC(C)n1nc(-c2cccc(C(F)(F)F)n2)cc1[C@H]1[C@@H]2C[C@H](N3CCC4(C3)CS(=O)(=O)C4)C[C@@H]21 (single isomer, unassigned) [Compound 12]
28 | 9.6 nM | 2.5 nM | CC(C)n1nc(-c2ccnc(C(F)(F)F)c2)cc1[C@H]1[C@@H]2C[C@H](N3CCC4(C3)CS(=O)(=O)C4)C[C@@H]21 (single isomer, unassigned) [Compound 19]
29 | 5.91 nM | 1.81 nM | CC(C)n1nc(-c2cccc(C(F)(F)F)c2)cc1[C@H]1[C@@H]2C[C@@H](N3CCC4(C3)CS(=O)(=O)C4)C[C@@H]21 (single isomer, unassigned) [Compound 2]
